We go through six substances from PMC7457965 (Bioorganic & Medicinal Chemistry, 2020).

The test system of data set [1] is DENV (New Guinea C). The data set is classed as cell-based, Dengue virus. The following applies: read-out: DENV EC50: effective concentration showing 50% inhibition of virus-induced CPE.
Data set [2] relates to YFV (17D). The data set is classed as cell-based, Yellow Fever Virus. The following applies: read-out: YFV EC50.
Data set [3] has as its system ZIKV (MR766). Format: cell-based, Zika virus. The settings on record: read-out: ZIKV EC50.
Data set [4] addresses ZIKV NS5-MTase (Zika virus, UniProt A0A024B7W1). Kind of data set: radioactive filter-binding 2'-O-MTase assay, ZIKV. The following applies: 50 µM compound. Format: biochemical.
In data set [5] the test system is Ebola (EBOV) virus. The settings on record: cited from earlier work.
Data set [6] can be described thus: preliminary minimum tolerated dose. The data set is classed as in vivo.
The target in data set [7] is human N7 (RNMT) MTase (Homo sapiens, UniProt O43148). Format: biochemical. The following applies: 50 µM.
For data set [8], the target named is T1, DENV NS5-MTase (Dengue virus type 3, UniProt Q6YMS4).
T1 sequence (Q6YMS4 2492-2753 limits assumed): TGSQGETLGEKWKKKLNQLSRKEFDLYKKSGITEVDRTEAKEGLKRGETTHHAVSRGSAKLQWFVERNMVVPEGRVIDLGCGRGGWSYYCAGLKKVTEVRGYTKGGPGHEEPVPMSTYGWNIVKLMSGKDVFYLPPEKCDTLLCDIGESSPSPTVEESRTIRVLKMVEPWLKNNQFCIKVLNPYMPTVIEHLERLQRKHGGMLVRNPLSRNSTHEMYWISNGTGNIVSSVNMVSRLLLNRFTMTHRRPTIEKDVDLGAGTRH
As to the kind of experiment: radioactive filter-binding 2'-O-MTase assay, DENV. The data set is classed as biochemical, DENV-3. The settings on record: 50 µM compound.

Data set [9] relates to SARS. The settings on record: read-out: activity against SARS; cited from earlier work.
In data set [10] the test system is Ebola (EBOV) virus. Format: cell-based. The settings on record: read-out: EC50 against EBOV.

Read-outs that look alike come from different tables or passages of the source. Bounds are passed on as bounds.

human N7 (RNMT) MTase, sequence (O43148 whole entry): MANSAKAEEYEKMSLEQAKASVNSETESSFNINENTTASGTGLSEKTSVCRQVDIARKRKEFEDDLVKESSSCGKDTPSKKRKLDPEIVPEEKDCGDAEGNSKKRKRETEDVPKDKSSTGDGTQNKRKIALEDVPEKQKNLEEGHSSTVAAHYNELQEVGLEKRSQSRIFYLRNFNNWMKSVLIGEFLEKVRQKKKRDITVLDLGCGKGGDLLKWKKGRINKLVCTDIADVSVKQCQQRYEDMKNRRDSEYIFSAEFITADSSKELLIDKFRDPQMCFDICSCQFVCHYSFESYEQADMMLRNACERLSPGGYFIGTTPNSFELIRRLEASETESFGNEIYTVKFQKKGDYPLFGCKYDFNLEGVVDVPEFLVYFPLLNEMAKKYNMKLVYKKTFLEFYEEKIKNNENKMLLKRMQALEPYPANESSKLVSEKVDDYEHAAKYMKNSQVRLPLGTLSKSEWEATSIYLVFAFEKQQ
ZIKV NS5-MTase, sequence (A0A024B7W1 2521-2785 limits assumed): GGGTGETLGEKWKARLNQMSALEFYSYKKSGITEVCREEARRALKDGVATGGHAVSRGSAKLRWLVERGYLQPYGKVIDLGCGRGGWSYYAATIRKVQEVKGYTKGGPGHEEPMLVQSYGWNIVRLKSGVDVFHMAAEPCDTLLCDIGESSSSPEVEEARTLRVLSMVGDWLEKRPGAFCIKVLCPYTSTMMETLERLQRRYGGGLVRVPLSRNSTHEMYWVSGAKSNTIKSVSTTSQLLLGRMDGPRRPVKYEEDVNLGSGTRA

As to “2-((4-(2,4-dimethoxypyrimidine-5-yl)-1H-imidazol-1-yl) methoxy)ethan-1-ol [Compound 2]”, the EC50 in [1] was greater than 50 µM; in data set [2], greater than 58 µM; in data set [3], greater than 76 µM.

With “2-((4-(2-amino-4-methoxypyrimidin-5-yl)-1H-imidazol-1-yl) methoxy)ethan-1-ol [Compound 1]”, in data set [4], the “Percent inhibition of ZIKV MTase” value is “did not exhibit a significant inhibitory effect”. Further, the values for the EC50 in [1], in data set [5] (read-out: EC50 against Ebola (EBOV) virus) and in data set [2] were 0.057 µM, 2.2 ± 0.3 µM and 0.37 µM, respectively. Further, the “activity against Ebola (EBOV) virus” value in [5] is on record as “active”. For the same substance, in data set [6], the “minimum tolerated dose (MTD) studies: no toxicity up to” value is on record as no less than 250 mgs/kg. Further, the “inhibition of human N7 MTase activity” value in [7] is given as “did not exhibit a significant inhibitory effect”. In addition, the “Percent inhibition of DENV MTase” value in data set [8] is recorded as “did not exhibit a significant inhibitory effect”.

As to “2-((4-(2-amino-4-methoxypyrimidin-5-yl)-1H-imidazol-1-yl)methoxy)ethyl acetate [Compound 1-Ac]”, the EC50 in data set [1] is 6.1 µM; in [2], greater than 57 µM; in data set [9], 11.9 µM; in data set [3], greater than 100 µM. Also, the “activity against Ebola (EBOV) virus” value in data set [5] is recorded as “active”.

Regarding “2-((4–2,4-dimethoxypyrimidin-5-yl)-1H-imidazol-1-yl)methoxy) ethyl acetate [Compound 2-Ac]”, the EC50 was 19 µM in data set [1], greater than 58 µM in data set [2] and 8.2 ± 1.8 µM in data set [10].

As for “2-ethylbutyl ((2-((4-(2,4-dimethoxypyrimidin-5-yl)-1H-imidazol-1-yl)methoxy)ethoxy)-(phenoxy)-phosphoryl)alaninate [Compound 2-MG]”, the EC50 was greater than 53 µM in data set [1], greater than 53 µM in data set [2] and greater than 56 µM in [3].

For “2-ethylbutyl((2-((4-(2-amino-4-methoxypyrimidin-5-yl)-1H-imidazol-1-yl)methoxy)-ethoxy)-(phenoxy)phosphoryl)alaninate [Compound 1-MG]”, the results for the EC50 in [1], in data set [2] and in data set [3] were greater than 57 µM, greater than 55 µM and greater than 31 µM, respectively. The “activity against Ebola (EBOV) virus” value in data set [5] is “active”.
